Test system: yeast genes (level of expressed mRNA)
Test: DNA chip analysis of expressed mRNA of yeast genes after 2 h culture with a toxic chemical substance
Assay type: cell-based, Saccharomyces cerevisiae S288C
Details: for The level of expressed mRNA in the presence of chemical substance/: ratio to no chemical; for The level of expressed mRNA in the presence of chemical substance/ (ratio to absence): transport facilitation protein gene; for The level of expressed mRNA in the presence of chemical substance/ (ratio to absence of chemical substance): stress protein genes, DNA chip
Method in brief: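 S. cerevisiae S288C in YPD at 25 °C was exposed at log phase for 2 h to a growth-inhibiting, non-lethal concentration of the chemical. Poly(A) mRNA was reverse-transcribed with Cy3- or Cy5-dUTP and hybridized to a whole-genome yeast DNA chip (65 °C, >12 h). Values are fluorescence ratios versus untreated cells.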

In the case of sodium dodecylbenzosulfonate [(17)], the “The level of expressed mRNA in the presence of chemical substance/” value (yeast gene YNL240C) is reported as 0.8, the “The level of expressed mRNA in the presence of chemical substance/in the absence of chemical substance” value (yeast gene YNL241C) is reported as 1.0 and the “The level of expressed mRNA in the presence of chemical substance/ (ratio to absence)” value (yeast gene YNL259C) is reported as 2.6. The “The level of expressed mRNA in the presence of chemical substance/” value (yeast gene YNL260C) was 0.9, the “The level of expressed mRNA in the presence of chemical substance/in the absence of chemical substance” value (yeast gene YNL274C) was 1.4 and the “The level of expressed mRNA in the presence of chemical substance/” value (yeast gene YNL285W) was 1.2. For the same substance, the “The level of expressed mRNA in the presence of chemical substance/” value (yeast gene YNL293W) was 1.0, the “The level of expressed mRNA in the presence of chemical substance/in the absence of chemical substance” value (yeast gene YNL331C) was 1.7 and the “The level of expressed mRNA in the presence of chemical substance/in the absence of chemical substance” value (yeast gene YNL332W) was 1.0. For the same substance, the “The level of expressed mRNA in the presence of chemical substance/The level of expressed mRNA in the absence of chemical substance” value (yeast gene YNL333W) was 1.4, the “The level of expressed mRNA in the presence of chemical substance/The level of expressed mRNA in the absence of chemical substance” value (yeast gene YNR010W) was 1.7 and the “The level of expressed mRNA in the presence of chemical substance/” value (yeast gene YNR061C) was 1.6. The “The level of expressed mRNA in the presence of chemical substance/The level of expressed mRNA in the absence of chemical substance” value (yeast gene YNR069C) was 1.1, the “The level of expressed mRNA in the presence of chemical substance/ (in its absence), gene YNR072W” value (yeast gene YNR072W, ratio of DNA chip fluorescence intensity to that without chemical substance) was 1.3 and the “The level of expressed mRNA in the presence of chemical substance/” value (yeast gene YNR074C) was 0.9. The “The level of expressed mRNA in the presence of chemical substance/ (ratio to absence of chemical substance)” value (yeast gene YNR076W) was 1.5, the “The level of expressed mRNA in the presence of chemical substance/The level of expressed mRNA in the absence of chemical substance” value (yeast gene YOL013C) was 1.1 and the “The level of expressed mRNA in the presence of chemical substance/” value (yeast gene YOL084W) was 1.3. For the same substance, the “The level of expressed mRNA in the presence of chemical substance/ (ratio to absence), gene YOL096C” value (yeast gene YOL096C, mitochondria-located protein genes, 2 h culture with chemical) was 1.2, the “The level of expressed mRNA in the presence of chemical substance/ (in its absence), gene YOL096C” value (yeast gene YOL096C, ratio of DNA chip fluorescence intensity to that without chemical substance) was 1.2 and the “The level of expressed mRNA in the presence of chemical substance/ (in its absence), gene YOL108C” value (yeast gene YOL108C, ratio of DNA chip fluorescence intensity to that without chemical substance) was 1.5. The “The level of expressed mRNA in the presence of chemical substance/ (in its absence), gene YOL116W” value (yeast gene YOL116W, ratio of DNA chip fluorescence intensity to that without chemical substance) was 1.1, the “The level of expressed mRNA in the presence of chemical substance/ (ratio to absence)” value (yeast gene YOL119C) was 1.4 and the “The level of expressed mRNA in the presence of chemical substance/in the absence of chemical substance” value (yeast gene YOL151W) was 4.0. For the same substance, the “The level of expressed mRNA in the presence of chemical substance/ (ratio to absence)” value (yeast gene YOL158C) was 1.4, the “The level of expressed mRNA in the presence of chemical substance/” value (yeast gene YOL159C) was 2.0 and the “The level of expressed mRNA in the presence of chemical substance/ (ratio to absence of chemical substance)” value (yeast gene YOL161C) was 1.1. The “The level of expressed mRNA in the presence of chemical substance/ (ratio to absence)” value (yeast gene YOL163W) was 0.8, the “The level of expressed mRNA in the presence of chemical substance/The level of expressed mRNA in the absence of chemical substance” value (yeast gene YOL164W) was 1.1 and the “The level of expressed mRNA in the presence of chemical substance/in the absence of chemical substance” value (yeast gene YOL165C) was 1.6. The “The level of expressed mRNA in the presence of chemical substance/” value (yeast gene YOR007C) was 1.2, the “The level of expressed mRNA in the presence of chemical substance/ (ratio to absence of chemical substance)” value (yeast gene YOR008C) was 0.8 and the “The level of expressed mRNA in the presence of chemical substance/ (ratio to absence of chemical substance)” value (yeast gene YOR009W) was 0.9. For the same substance, the “The level of expressed mRNA in the presence of chemical substance/ (ratio to absence of chemical substance)” value (yeast gene YOR010C) was 1.4, the “The level of expressed mRNA in the presence of chemical substance/ (ratio to absence)” value (yeast gene YOR035C) was 1.6 and the “The level of expressed mRNA in the presence of chemical substance/The level of expressed mRNA in the absence of chemical substance” value (yeast gene YOR036W) was 1.6. For the same substance, the “The level of expressed mRNA in the presence of chemical substance/ (in its absence), gene YOR103C” value (yeast gene YOR103C, ratio of DNA chip fluorescence intensity to that without chemical substance) was 1.1, the “The level of expressed mRNA in the presence of chemical substance/The level of expressed mRNA in the absence of chemical substance” value (yeast gene YOR117W) was 1.4 and the “The level of expressed mRNA in the presence of chemical substance/in the absence of chemical substance” value (yeast gene YOR120W) was 1.3. The “The level of expressed mRNA in the presence of chemical substance/The level of expressed mRNA in the absence of chemical substance” value (yeast gene YOR124C) was 1.0, the “The level of expressed mRNA in the presence of chemical substance/ (ratio to absence)” value (yeast gene YOR130C) was 1.5 and the “The level of expressed mRNA in the presence of chemical substance/The level of expressed mRNA in the absence of chemical substance” value (yeast gene YOR132W) was 1.2. The “The level of expressed mRNA in the presence of chemical substance/in the absence of chemical substance” value (yeast gene YOR153W) was 2.5, the “The level of expressed mRNA in the presence of chemical substance/The level of expressed mRNA in the absence of chemical substance” value (yeast gene YOR157C) was 1.2 and the “The level of expressed mRNA in the presence of chemical substance/ (in its absence), gene YOR180C” value (yeast gene YOR180C, ratio of DNA chip fluorescence intensity to that without chemical substance) was 0.9. The “The level of expressed mRNA in the presence of chemical substance/The level of expressed mRNA in the absence of chemical substance” value (yeast gene YOR181W) was 1.1 and the “The level of expressed mRNA in the presence of chemical substance/The level of expressed mRNA in the absence of chemical substance” value (yeast gene YOR185C) was 0.9.

From US20050112573A1, “Method of detecting toxic substance” (priority 2001, published 2005)
